Measurements taken from patent EP3315130A1, “HYALURONIC ACID COMPOSITION INCLUDING MEPIVACAINE” (Laboratoires Vivacy, priority 2016, dated 2018).

What was measured:
ecchymose = assay: Clinical evaluation of occurrence and severity of ecchymosis after injection of hyaluronic acid compositions; parameters: species or system patients; conditions: human, in vivo
Protocol: (§1) Deux types de composition aqueuse à base d'acide hyaluronique (concentration 20 mg/g) sont préparés.
(§2) Toutes les compositions sont issues d'un mélange monophasique tel que celui décrit dans la demande de brevet WO 2009/071697 au nom de la demanderesse, et comprennent du mannitol (concentration 35 mg/g).
(§3) Deux groupes A et B de 64 patients chacun sont formés (128 patients au total).
(§4) Le groupe B est injecté au niveau du sillon naso-génien au moyen de la composition aqueuse à base d'acide hyaluronique comprenant du mannitol et de la mépivacaïne

oedème = assay: Clinical evaluation of occurrence and severity of oedema after injection of hyaluronic acid compositions; parameters: species or system patients; conditions: human, in vivo
Protocol: as §1, §2, §3, §4

## mépïvacaïne
ecchymose
  Ecchymose - Aucune: 42
  Ecchymose - Légère ou modérée: 22
  Ecchymose - Sévère: 0
oedème
  OEdème - Aucun: 63
  OEdème - Léger ou modéré: 1
  OEdème - Sévère: 0
